Laboratory results published in ChEMBL document CHEMBL1795338, “Identification of pentacyclic triterpenes derivatives as potent inhibitors against glycogen phosphorylase based on 3D-QSAR studies” (Eur J Med Chem, 2011).

molecular target: T1, Glycogen phosphorylase, muscle form (Oryctolagus cuniculus, UniProt P00489); assay: Inhibition of rabbit muscle glycogen phosphorylase A assessed as release of phosphate from glucose-1-phosphate after 25 mins by microplate reader based method
T1 sequence (P00489 whole entry): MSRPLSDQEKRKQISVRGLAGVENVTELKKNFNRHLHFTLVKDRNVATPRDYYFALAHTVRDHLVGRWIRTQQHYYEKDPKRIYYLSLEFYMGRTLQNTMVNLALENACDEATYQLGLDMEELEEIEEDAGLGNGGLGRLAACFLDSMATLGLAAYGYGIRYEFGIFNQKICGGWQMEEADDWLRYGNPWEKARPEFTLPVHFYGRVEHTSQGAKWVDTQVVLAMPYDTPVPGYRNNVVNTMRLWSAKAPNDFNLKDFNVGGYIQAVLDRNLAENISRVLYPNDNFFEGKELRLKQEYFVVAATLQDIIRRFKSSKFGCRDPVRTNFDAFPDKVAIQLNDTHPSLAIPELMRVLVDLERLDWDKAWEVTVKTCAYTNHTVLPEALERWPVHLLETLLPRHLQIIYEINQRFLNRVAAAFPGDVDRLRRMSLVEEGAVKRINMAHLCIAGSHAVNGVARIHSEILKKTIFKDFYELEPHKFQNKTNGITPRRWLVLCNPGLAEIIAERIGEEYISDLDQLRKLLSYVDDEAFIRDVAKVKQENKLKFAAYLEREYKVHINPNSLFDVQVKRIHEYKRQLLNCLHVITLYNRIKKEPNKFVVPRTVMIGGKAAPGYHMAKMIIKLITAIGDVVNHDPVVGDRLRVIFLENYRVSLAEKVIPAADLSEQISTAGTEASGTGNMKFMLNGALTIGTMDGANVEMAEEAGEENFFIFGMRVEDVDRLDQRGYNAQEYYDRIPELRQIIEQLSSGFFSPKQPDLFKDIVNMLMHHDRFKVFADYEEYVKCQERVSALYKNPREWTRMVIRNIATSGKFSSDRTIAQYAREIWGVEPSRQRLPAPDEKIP

SMILES	IC50
CC1(C)CC[C@]2(C(=O)OC3CC3)CC[C@]3(C)C(=CC[C@@H]4[C@@]5(C)C[C@H](O)CC(C)(C)[C@@H]5CC[C@]43C)[C@@H]2C1	23.1 µM
CCCCNCCCCCCOC(=O)[C@]12CCC(C)(C)C[C@H]1C1=CC[C@@H]3[C@@]4(C)CC[C@H](O)C(C)(C)[C@@H]4CC[C@@]3(C)[C@]1(C)CC2	12.6 µM
CC1(C)CC[C@]2(C(=O)OCc3ccccc3)CC[C@]3(C)C(=CC[C@@H]4[C@@]5(C)CC(=O)[C@H](O)C(C)(C)[C@@H]5CC[C@]43C)[C@@H]2C1	52.9 µM
CC1(C)CC[C@]2(C(=O)O)CC[C@]3(C)C(=CC[C@@H]4[C@@]5(C)C/C(=N\O)C(=O)C(C)(C)[C@@H]5CC[C@]43C)[C@@H]2C1	26.1 µM
CC1(C)CC[C@]2(C(=O)OCc3ccccc3)CC[C@]3(C)C(=CC[C@@H]4[C@@]5(C)CC(=N\O)/C(=N\O)C(C)(C)[C@@H]5CC[C@]43C)[C@@H]2C1	22.3 µM
CC1(C)CC[C@]2(C(=O)OCc3ccccc3)CC[C@]3(C)C(=CC[C@@H]4[C@@]5(C)C/C(=N\OCc6ccc(Cl)cc6Cl)C(=O)C(C)(C)[C@@H]5CC[C@]43C)[C@@H]2C1	8 µM
CC1(C)CC[C@]2(C(=O)O)CC[C@]3(C)C(=CC[C@@H]4[C@@]5(C)Cc6nonc6C(C)(C)[C@@H]5CC[C@]43C)[C@@H]2C1	11.2 µM
C[C@H]1[C@H](C)CC[C@]2(C(=O)O)CC[C@]3(C)C(=CC[C@@H]4[C@@]5(C)Cc6nonc6C(C)(C)[C@@H]5CC[C@]43C)[C@H]12	66.3 µM
Cc1ccc(-n2ncc3c2C(C)(C)[C@@H]2CC[C@]4(C)[C@H](CC=C5[C@@H]6CC(C)(C)CC[C@]6(C(=O)O)CC[C@]54C)[C@@]2(C)C3)cc1	18.3 µM
CC1(C)CC[C@]2(C(=O)O)CC[C@]3(C)C(=CC[C@@H]4[C@@]5(C)Cc6cnn(-c7ccc(Cl)cc7)c6C(C)(C)[C@@H]5CC[C@]43C)[C@@H]2C1	242 µM
CC1(C)CC[C@]2(C(=O)O)CC[C@]3(C)C(=CC[C@@H]4[C@@]5(C)Cc6cnn(-c7cc(F)cc(F)c7)c6C(C)(C)[C@@H]5CC[C@]43C)[C@@H]2C1	46.9 µM
CC(C)c1ccc(-n2ncc3c2C(C)(C)[C@@H]2CC[C@]4(C)[C@H](CC=C5[C@@H]6CC(C)(C)CC[C@]6(C(=O)O)CC[C@]54C)[C@@]2(C)C3)cc1	69.6 µM
CC1(C)CC[C@]2(C(=O)OCc3ccccc3)CC[C@]3(C)C(=CC[C@@H]4[C@@]5(C)Cc6cnn(-c7ccc(Cl)cc7)c6C(C)(C)[C@@H]5CC[C@]43C)[C@@H]2C1	11.2 µM
COc1ccc(-n2ncc3c2C(C)(C)[C@@H]2CC[C@]4(C)[C@H](CC=C5[C@@H]6CC(C)(C)CC[C@]6(C(=O)OCc6ccccc6)CC[C@]54C)[C@@]2(C)C3)cc1	13.1 µM
C[C@H]1[C@H](C)CC[C@]2(C(=O)OCc3ccccc3)CC[C@]3(C)C(=CC[C@@H]4[C@@]5(C)Cc6cn[nH]c6C(C)(C)[C@@H]5CC[C@]43C)[C@H]12	72.9 µM
CCn1cc2c(n1)C(C)(C)[C@@H]1CC[C@]3(C)[C@H](CC=C4[C@@H]5CC(C)(C)CC[C@]5(C(=O)OCc5ccccc5)CC[C@]43C)[C@@]1(C)C2	64.6 µM
CC1(C)CC[C@]2(C(=O)OCc3ccccc3)CC[C@]3(C)C(=CC[C@@H]4[C@@]5(C)Cc6cn(Cc7ccccc7)nc6C(C)(C)[C@@H]5CC[C@]43C)[C@@H]2C1	126 µM
CCOC(=O)Cn1cc2c(n1)C(C)(C)[C@@H]1CC[C@]3(C)[C@H](CC=C4[C@@H]5CC(C)(C)CC[C@]5(C(=O)OCc5ccccc5)CC[C@]43C)[C@@]1(C)C2	111 µM
CC1(C)CC[C@]2(C(=O)OCc3ccccc3)CC[C@]3(C)C(=CC[C@@H]4[C@@]5(C)Cc6cn(Cc7ccc(Cl)cc7Cl)nc6C(C)(C)[C@@H]5CC[C@]43C)[C@@H]2C1	179 µM
CC(=O)n1cc2c(n1)C(C)(C)[C@@H]1CC[C@]3(C)[C@H](CC=C4[C@@H]5CC(C)(C)CC[C@]5(C(=O)O)CC[C@]43C)[C@@]1(C)C2	53.8 µM
CC1(C)CC[C@]2(C(=O)O)CC[C@]3(C)C(=CC[C@@H]4[C@@]5(C)Cc6cn(S(C)(=O)=O)nc6C(C)(C)[C@@H]5CC[C@]43C)[C@@H]2C1	49.3 µM
CCC(=O)n1cc2c(n1)C(C)(C)[C@@H]1CC[C@]3(C)[C@H](CC=C4[C@@H]5CC(C)(C)CC[C@]5(C(=O)O)CC[C@]43C)[C@@]1(C)C2	37.2 µM
C[C@H]1[C@H](C)CC[C@]2(C(=O)OCc3ccccc3)CC[C@]3(C)C(=CC[C@@H]4[C@@]5(C)C[C@@H]6O[C@@H]6C(C)(C)[C@@H]5CC[C@]43C)[C@H]12	69.5 µM
CC1(C)CC[C@]2(C(=O)O)CC[C@]3(C)C(=CC[C@@H]4[C@@]5(C)Cc6cnn(-c7ccccc7)c6C(C)(C)[C@@H]5CC[C@]43C)[C@@H]2C1	35.1 µM
CC1(C)CC[C@]2(C(=O)O)CC[C@]3(C)C(=CC[C@@H]4[C@@]5(C)Cc6cn[nH]c6C(C)(C)[C@@H]5CC[C@]43C)[C@@H]2C1	7.8 µM

More lines, in order of falling IC50, values ahead:

IC50	SMILES
188 µM	Cn1cc2c(n1)C(C)(C)[C@@H]1CC[C@]3(C)[C@H](CC=C4[C@@H]5CC(C)(C)CC[C@]5(C(=O)OCc5ccccc5)CC[C@]43C)[C@@]1(C)C2
179 µM	CC1(C)CC[C@]2(C(=O)OCc3ccccc3)CC[C@]3(C)C(=CC[C@@H]4[C@@]5(C)C/C(=N\O)[C@H](O)C(C)(C)[C@@H]5CC[C@]43C)[C@@H]2C1
108 µM	C[C@H]1[C@H](C)CC[C@]2(C(=O)OCc3ccccc3)CC[C@]3(C)C(=CC[C@@H]4[C@@]5(C)C[C@H](O)[C@H](O)C(C)(C)[C@@H]5CC[C@]43C)[C@H]12
106 µM	Cc1ccc(-n2ncc3c2C(C)(C)[C@@H]2CC[C@]4(C)[C@H](CC=C5[C@@H]6CC(C)(C)CC[C@]6(C(=O)OCc6ccccc6)CC[C@]54C)[C@@]2(C)C3)cc1
82.9 µM	C[C@H]1[C@H](C)CC[C@]2(C(=O)OCc3ccccc3)CC[C@]3(C)C(=CC[C@@H]4[C@@]5(C)C/C(=N\O)C(=O)C(C)(C)[C@@H]5CC[C@]43C)[C@H]12
67.8 µM	CC1(C)CC[C@]2(C(=O)O)CC[C@]3(C)C(=CC[C@@H]4[C@@]5(C)C[C@H](O)[C@H](O)[C@@](C)(CO)[C@@H]5CC[C@]43C)[C@@H]2C1
61.3 µM	CC1(C)CC[C@]2(C(=O)OCc3ccccc3)CC[C@]3(C)C(=CC[C@@H]4[C@@]5(C)C/C(=N\OCc6ccccc6)C(=O)C(C)(C)[C@@H]5CC[C@]43C)[C@@H]2C1
47.1 µM	CC1(C)CC[C@]2(C(=O)OCc3ccccc3)CC[C@]3(C)C(=CC[C@@H]4[C@@]5(C)Cc6cn(CC(=O)O)nc6C(C)(C)[C@@H]5CC[C@]43C)[C@@H]2C1
46.8 µM	CC1(C)CC[C@]2(C(=O)OCc3ccccc3)CC[C@]3(C)C(=CC[C@@H]4[C@@]5(C)C/C(=N\O)C(=O)C(C)(C)[C@@H]5CC[C@]43C)[C@@H]2C1
40.4 µM	C[C@H]1[C@H](C)CC[C@]2(C(=O)O)CC[C@]3(C)C(=CC[C@@H]4[C@@]5(C)Cc6cn[nH]c6C(C)(C)[C@@H]5CC[C@]43C)[C@H]12
28.2 µM	CC1(C)CC[C@]2(C(=O)O)CC[C@]3(C)C(=CC[C@@H]4[C@@]5(C)C/C(=N\O)[C@H](O)C(C)(C)[C@@H]5CC[C@]43C)[C@@H]2C1
28.1 µM	Cc1ccc(NCCCCCCOC(=O)[C@]23CCC(C)(C)C[C@H]2C2=CC[C@@H]4[C@@]5(C)CC[C@H](O)C(C)(C)[C@@H]5CC[C@@]4(C)[C@]2(C)CC3)cc1
24.7 µM	CC1(C)CC[C@]2(COC(=O)CCC(=O)O)CC[C@]3(C)C(=CC[C@@H]4[C@@]5(C)Cc6c[nH]nc6C(C)(C)[C@@H]5CC[C@]43C)[C@@H]2C1
22.3 µM	C[C@H]1[C@H](C)CC[C@]2(C(=O)OCc3ccccc3)CC[C@]3(C)C(=CC[C@@H]4[C@@]5(C)C[C@H](O)CC(C)(C)[C@@H]5CC[C@]43C)[C@H]12
20.5 µM	CC1(C)CC[C@]2(C(=O)OCc3ccccc3)CC[C@]3(C)C(=CC[C@@H]4[C@@]5(C)Cc6cn(C7CC7)nc6C(C)(C)[C@@H]5CC[C@]43C)[C@@H]2C1
19.6 µM	CC1(C)CC[C@]2(C(=O)OCc3ccccc3)CC[C@]3(C)C(=CC[C@@H]4[C@@]5(C)CC6C=NOC6C(C)(C)[C@@H]5CC[C@]43C)[C@@H]2C1 (stereo partly specified)
14.1 µM	CC1(C)CC[C@]2(C(=O)OCCCCCCN)CC[C@]3(C)C(=CC[C@@H]4[C@@]5(C)CC[C@H](O)C(C)(C)[C@@H]5CC[C@]43C)[C@@H]2C1
12.7 µM	CC1(C)CC[C@]2(C(=O)O)CC[C@]3(C)C(=CC[C@@H]4[C@@]5(C)CC6C=NOC6C(C)(C)[C@@H]5CC[C@]43C)[C@@H]2C1 (stereo partly specified)
10 µM	CCCOC(=O)[C@@]1(C)[C@@H]2CC[C@]3(C)[C@H](CC=C4[C@@H]5[C@@H](C)[C@H](C)CC[C@]5(C(=O)O)CC[C@]43C)[C@@]2(C)C[C@@H](OC(=O)CCC)[C@@H]1OC(=O)CCC
8.1 µM	CC1(C)CC[C@]2(C(=O)OCc3ccccc3)CC[C@]3(C)C(=CC[C@@H]4[C@@]5(C)Cc6cn[nH]c6C(C)(C)[C@@H]5CC[C@]43C)[C@@H]2C1
7.31 µM	C[C@H]1[C@H](C)CC[C@]2(C(=O)OCc3ccccc3)CC[C@]3(C)C(=CC[C@@H]4[C@@]5(C)C=C(O)C(=O)C(C)(C)[C@@H]5CC[C@]43C)[C@H]12
